Laboratory results as given in publication PMC10368877, “Acid-sensing ion channel blocker diminazene facilitates proton-induced excitation of afferent nerves in a similar manner that Na^+/H^+ exchanger blockers do” (Frontiers in Cellular Neuroscience, 2023).

Tested on: T1, acid-sensing ion channels (native ASICs of mouse DRG neurons; subunit not identified)
T1 construct: native channels in primary cultured mouse DRG neurons
Assay: whole-cell patch clamp, ASIC currents evoked by pH drop […] to […] at -60 mV
Assay type: cell-based

IC50: 16.9 ± 4.4 µM
Structure (SMILES): N=C(N)c1ccc(/N=N/Nc2ccc(C(=N)N)cc2)cc1 [diminazene]
